Converted amounts (≈) assume the structure as drawn. The source made the active and inactive calls. The rule behind the calls is not given here.
Tests used:
Homo sapiens = species on record: Homo sapiens; test: Inhibition of sodium channel (unknown origin) at 30 uM
[1] = Permeability in MDCK2 cells; assay type: ADME, cell-based, Canis lupus familiaris, MDCK-II; conditions: dog, MDCK; read-out: permeability
Rattus norvegicus [2] = test: Toxicity in male rat assessed as increase in monocyte level at 100 mg/kg/day, po for 7 days; assay type: organism-based; conditions: in vivo, 168 h
[3] = biological target: T1, PXR (Nuclear receptor subfamily 1 group I member 2) (Homo sapiens, UniProt O75469); test: Activation of PXR (unknown origin) relative to rifampicin; assay type: ADME; conditions: read-out: FC
T1 sequence (O75469 whole entry): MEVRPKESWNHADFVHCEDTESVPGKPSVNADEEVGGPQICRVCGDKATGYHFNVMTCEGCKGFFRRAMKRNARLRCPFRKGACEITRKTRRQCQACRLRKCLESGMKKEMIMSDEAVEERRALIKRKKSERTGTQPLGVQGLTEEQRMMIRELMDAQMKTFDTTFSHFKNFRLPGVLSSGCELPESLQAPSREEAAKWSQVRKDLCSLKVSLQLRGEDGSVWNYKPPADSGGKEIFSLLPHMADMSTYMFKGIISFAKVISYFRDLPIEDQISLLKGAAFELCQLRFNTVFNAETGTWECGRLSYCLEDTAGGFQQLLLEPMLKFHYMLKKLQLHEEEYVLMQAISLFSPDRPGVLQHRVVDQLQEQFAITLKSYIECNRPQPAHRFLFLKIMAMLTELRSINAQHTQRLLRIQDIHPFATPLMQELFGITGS

[4] = Drug excretion in rat bile assessed as unchanged compound level at 2.5 mg/kg, iv; assay type: ADME, organism-based; conditions: read-out: Drug excretion
[5] = Protein binding in rat plasma; assay type: ADME, cell-free; conditions: read-out: PPB
[6] = Ratio of drug level in brain to plasma of cynomolgus monkey; assay type: ADME, cell-free, Macaca fascicularis; conditions: read-out: BPR
Canis familiaris [7] = test: Clearance in beagle dog at 1 mg/kg, iv by LC-MS/MS method relative to liver blood flow; assay type: ADME, organism-based, Canis lupus familiaris; conditions: in vivo
[8] = Dissociation constant, pKa of the compound; assay type: physicochemical
Cynomolgus monkey = test: Clearance in cynomolgus monkey at 1 mg/kg, iv by LC-MS/MS method relative to liver blood flow; assay type: ADME, organism-based, Macaca fascicularis; conditions: in vivo
Rattus norvegicus [9] = test: Toxicity in male rat assessed as increase in monocyte level at 750 mg/kg/day, po for 7 days; assay type: organism-based; conditions: in vivo, 168 h
[10] = Drug excretion in rat feces assessed as unchanged compound level at 2.5 mg/kg, iv; assay type: ADME, organism-based; conditions: faeces, read-out: Drug excretion
[11] = Ratio of drug level in brain to plasma of rat; assay type: ADME, cell-free; conditions: read-out: BPR
[12] = Stability in rat liver microsomes assessed as compound metabolism; assay type: ADME, microsome
[13] = Protein binding in dog plasma; assay type: ADME, cell-free, Canis lupus familiaris; conditions: read-out: PPB
Canis familiaris [14] = test: Toxicity in male dog up to 750 mg/kg/day, po for 7 days; assay type: organism-based, Canis lupus familiaris; conditions: in vivo, 168 h
[15] = Ratio of drug level in liver to plasma of cynomolgus monkey; assay type: ADME, cell-free, Macaca fascicularis
Hepatocyte [16] = test: Stability in human hepatocytes assessed as compound metabolism; assay type: ADME, cell-based
Cytochrome P450 3A4 = Cytochrome P450 3A4 (Homo sapiens, UniProt P08684); test: Inhibition of CYP3A4 (unknown origin); assay type: ADME
[17] = Therapeutic index, ratio of CC50 for human HuH7 replicon cells to EC50 for inhibition of HCV NS5A in HCV genotype 1b assessed as reduction in viral replication by cell based replicon assay; assay type: toxicity; conditions: read-out: Ratio CC50/EC50
[18] = Ratio of drug level in brain to plasma of dog; assay type: ADME, cell-free, Canis lupus familiaris; conditions: read-out: BPR
[19] = Drug excretion in rat urine assessed as unchanged compound level at 2.5 mg/kg, iv; assay type: ADME, organism-based; conditions: read-out: Drug excretion
[20] = biological target: Voltage-gated L-type calcium channel (Homo sapiens, UniProt Q13936+Q13698+Q01668+O60840); test: Inhibition of L-type calcium channel (unknown origin) at 30 uM; assay type: protein assay
[21] = biological target: T2, Solute carrier organic anion transporter family member 1B1 (Homo sapiens, UniProt Q9Y6L6); test: Inhibition of human OATP1B1; assay type: ADME
T2 sequence (Q9Y6L6 whole entry): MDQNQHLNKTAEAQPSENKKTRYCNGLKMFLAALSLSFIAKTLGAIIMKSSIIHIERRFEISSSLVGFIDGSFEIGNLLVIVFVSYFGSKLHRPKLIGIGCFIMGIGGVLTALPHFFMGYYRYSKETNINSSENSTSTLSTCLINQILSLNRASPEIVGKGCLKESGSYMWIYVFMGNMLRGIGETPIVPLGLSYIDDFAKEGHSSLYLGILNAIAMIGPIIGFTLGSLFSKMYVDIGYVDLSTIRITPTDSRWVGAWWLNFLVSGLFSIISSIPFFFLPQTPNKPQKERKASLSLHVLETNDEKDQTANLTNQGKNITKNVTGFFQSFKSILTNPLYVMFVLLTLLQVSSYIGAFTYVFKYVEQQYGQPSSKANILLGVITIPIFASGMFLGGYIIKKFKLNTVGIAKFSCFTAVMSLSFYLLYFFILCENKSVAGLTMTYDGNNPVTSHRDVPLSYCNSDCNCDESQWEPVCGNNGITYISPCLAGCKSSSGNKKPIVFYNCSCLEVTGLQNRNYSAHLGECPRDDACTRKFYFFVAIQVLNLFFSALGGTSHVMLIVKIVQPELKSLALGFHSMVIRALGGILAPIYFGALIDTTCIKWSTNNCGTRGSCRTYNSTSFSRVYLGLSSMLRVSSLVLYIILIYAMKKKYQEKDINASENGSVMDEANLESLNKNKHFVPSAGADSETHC

[22] = Ratio of drug level in liver to plasma of dog; assay type: ADME, cell-free, Canis lupus familiaris
[23] = Drug excretion in dog assessed as unchanged compound level at 1 mg/kg, iv; assay type: ADME, organism-based, Canis lupus familiaris; conditions: in vivo
[24] = Toxicity in female rat up to 30 mg/kg/day, po for 4 days; assay type: organism-based; conditions: in vivo
[25] = Stability in human liver microsomes assessed as compound metabolism; assay type: ADME, microsome
[26] = Ratio of drug level in liver to plasma of rat; assay type: ADME, cell-free
Cytochrome P450 2C9 = Cytochrome P450 2C9 (Homo sapiens, UniProt P11712); test: Inhibition of CYP2C9 (unknown origin); assay type: ADME
[27] = biological target: T3, Nuclear receptor subfamily 1 group I member 2 (Homo sapiens, UniProt O75469); test: Activation of PXR in human hepatocytes assessed as induction of […] mRNA expression; assay type: ADME, cell-based
T3 sequence (O75469 whole entry): T1 sequence (O75469 whole entry)

[28] = biological target: Voltage-gated inwardly rectifying potassium channel KCNH2 (Homo sapiens, UniProt Q12809); test: Inhibition of human ERG at 30 uM
Hepatocyte [29] = test: Stability in cynomolgus monkey hepatocytes assessed as compound metabolism; assay type: ADME, cell-based, Macaca fascicularis
Rattus norvegicus [30] = test: Clearance in Sprague-Dawley rat at 2.5 mg/kg, iv by LC-MS/MS method relative to liver blood flow; assay type: ADME, organism-based; conditions: in vivo
Cytochrome P450 2D6 = Cytochrome P450 2D6 (Homo sapiens, UniProt P10635); test: Inhibition of CYP2D6 (unknown origin); assay type: ADME
[31] = Cytotoxicity in human HuH7 replicon cells by MTS assay; assay type: cell-based, Huh-7
Hepatocyte [32] = test: Stability in rat hepatocytes assessed as compound metabolism; assay type: ADME, cell-based
[33] = Stability in cynomolgus monkey liver microsomes assessed as compound metabolism; assay type: ADME, Macaca fascicularis, microsome
[34] = biological target: T3, Nuclear receptor subfamily 1 group I member 2; test: Activation of PXR (unknown origin); assay type: ADME
Hepatocyte [35] = test: Stability in dog hepatocytes assessed as compound metabolism; assay type: ADME, cell-based, Canis lupus familiaris
[36] = Solubility in pH 3.1 buffer; assay type: physicochemical
[37] = Protein binding in cynomolgus monkey plasma; assay type: ADME, cell-free, Macaca fascicularis; conditions: read-out: PPB
[38] = Solubility in pH 7.3 buffer; assay type: physicochemical
[39] = Stability in dog liver microsomes assessed as compound metabolism; assay type: ADME, Canis lupus familiaris, microsome
Salmonella typhimurium = test: Genotoxicity in Salmonella typhimurium by Ames test; assay type: toxicity, organism-based; conditions: salmonella enterica subsp. enterica serovar typhimurium
Rattus norvegicus [40] = test: Toxicity in male rat assessed as induction of mortality up to 750 mg/kg/day, po for 7 days; assay type: organism-based; conditions: in vivo, 168 h

Chain of Cytochrome P450 2C9 (P11712 whole entry): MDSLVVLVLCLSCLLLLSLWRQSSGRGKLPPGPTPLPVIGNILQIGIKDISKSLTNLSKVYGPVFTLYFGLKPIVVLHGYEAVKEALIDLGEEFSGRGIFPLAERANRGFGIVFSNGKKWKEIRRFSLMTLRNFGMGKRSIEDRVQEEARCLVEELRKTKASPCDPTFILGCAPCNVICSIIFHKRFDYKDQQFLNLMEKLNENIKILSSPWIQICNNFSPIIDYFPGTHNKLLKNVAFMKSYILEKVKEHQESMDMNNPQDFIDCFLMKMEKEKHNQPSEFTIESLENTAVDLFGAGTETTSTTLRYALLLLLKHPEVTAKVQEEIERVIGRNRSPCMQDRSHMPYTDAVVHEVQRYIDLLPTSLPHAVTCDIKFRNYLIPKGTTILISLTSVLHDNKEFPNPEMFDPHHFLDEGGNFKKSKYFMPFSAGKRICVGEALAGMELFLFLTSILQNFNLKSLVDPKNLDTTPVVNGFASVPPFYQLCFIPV
Chain of Cytochrome P450 3A4 (P08684 whole entry): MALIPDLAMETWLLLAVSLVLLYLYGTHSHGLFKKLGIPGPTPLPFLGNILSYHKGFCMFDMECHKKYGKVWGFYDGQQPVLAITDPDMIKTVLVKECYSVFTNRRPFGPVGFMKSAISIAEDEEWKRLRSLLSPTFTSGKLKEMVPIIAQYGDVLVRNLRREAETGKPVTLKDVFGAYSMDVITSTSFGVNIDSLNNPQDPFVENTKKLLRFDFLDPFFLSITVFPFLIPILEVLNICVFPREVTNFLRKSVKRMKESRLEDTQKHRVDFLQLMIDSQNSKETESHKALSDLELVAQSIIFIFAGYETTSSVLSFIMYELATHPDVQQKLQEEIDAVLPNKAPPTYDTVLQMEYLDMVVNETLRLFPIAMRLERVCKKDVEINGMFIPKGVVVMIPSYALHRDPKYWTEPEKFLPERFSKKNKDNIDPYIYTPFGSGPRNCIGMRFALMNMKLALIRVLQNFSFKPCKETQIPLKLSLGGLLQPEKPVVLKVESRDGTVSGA
Chain of Cytochrome P450 2D6 (P10635 whole entry): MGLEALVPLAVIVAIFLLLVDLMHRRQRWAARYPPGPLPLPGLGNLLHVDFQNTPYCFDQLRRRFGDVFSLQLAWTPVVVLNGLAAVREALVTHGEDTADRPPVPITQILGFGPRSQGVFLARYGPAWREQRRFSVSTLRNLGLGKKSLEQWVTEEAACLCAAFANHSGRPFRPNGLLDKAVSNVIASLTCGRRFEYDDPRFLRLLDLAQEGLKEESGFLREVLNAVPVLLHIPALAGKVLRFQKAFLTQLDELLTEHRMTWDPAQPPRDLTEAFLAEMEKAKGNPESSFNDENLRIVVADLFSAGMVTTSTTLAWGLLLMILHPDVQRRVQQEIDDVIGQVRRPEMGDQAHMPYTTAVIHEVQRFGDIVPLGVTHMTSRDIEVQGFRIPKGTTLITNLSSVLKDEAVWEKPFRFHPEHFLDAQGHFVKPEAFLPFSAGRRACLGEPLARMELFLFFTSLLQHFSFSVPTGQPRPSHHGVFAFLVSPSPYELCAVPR
Chain of Voltage-gated inwardly rectifying potassium channel KCNH2 (Q12809 whole entry): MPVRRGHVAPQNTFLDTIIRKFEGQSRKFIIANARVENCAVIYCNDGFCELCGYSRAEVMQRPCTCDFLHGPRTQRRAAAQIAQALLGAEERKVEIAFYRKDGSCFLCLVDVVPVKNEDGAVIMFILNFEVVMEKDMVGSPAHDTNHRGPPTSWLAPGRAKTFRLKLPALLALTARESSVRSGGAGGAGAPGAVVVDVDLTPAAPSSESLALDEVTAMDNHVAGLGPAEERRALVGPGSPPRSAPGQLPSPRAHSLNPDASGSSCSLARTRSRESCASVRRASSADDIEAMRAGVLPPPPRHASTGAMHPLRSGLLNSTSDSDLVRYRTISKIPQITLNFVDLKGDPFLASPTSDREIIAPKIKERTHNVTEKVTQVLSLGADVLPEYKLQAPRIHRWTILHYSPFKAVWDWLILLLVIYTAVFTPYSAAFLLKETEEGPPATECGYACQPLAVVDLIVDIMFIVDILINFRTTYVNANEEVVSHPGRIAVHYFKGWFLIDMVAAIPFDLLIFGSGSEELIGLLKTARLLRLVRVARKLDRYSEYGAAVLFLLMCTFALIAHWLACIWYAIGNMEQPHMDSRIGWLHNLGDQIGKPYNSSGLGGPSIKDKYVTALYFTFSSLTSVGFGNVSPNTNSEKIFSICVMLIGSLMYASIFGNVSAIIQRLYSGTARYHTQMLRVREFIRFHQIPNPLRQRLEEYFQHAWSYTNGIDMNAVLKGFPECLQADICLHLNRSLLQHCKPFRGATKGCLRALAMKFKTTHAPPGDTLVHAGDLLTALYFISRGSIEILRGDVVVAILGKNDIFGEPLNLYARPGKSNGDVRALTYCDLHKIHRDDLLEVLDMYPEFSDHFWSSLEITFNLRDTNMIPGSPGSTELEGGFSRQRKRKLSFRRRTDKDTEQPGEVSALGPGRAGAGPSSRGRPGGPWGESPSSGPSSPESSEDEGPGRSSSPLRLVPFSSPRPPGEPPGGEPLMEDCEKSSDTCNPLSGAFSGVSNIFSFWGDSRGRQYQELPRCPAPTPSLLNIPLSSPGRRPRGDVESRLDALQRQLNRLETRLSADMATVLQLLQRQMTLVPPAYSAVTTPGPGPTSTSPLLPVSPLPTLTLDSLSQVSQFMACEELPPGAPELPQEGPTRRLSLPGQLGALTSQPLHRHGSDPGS

COC(=O)N[C@H](C(=O)N1CC(F)(F)C[C@H]1c1ncc(-c2ccc(-c3ccc4c(ccc5nc([C@@H]6C[Si](C)(C)CN6C(=O)[C@@H](NC(=O)OC)C(C)C)[nH]c54)c3)cc2)[nH]1)C(C)C [listing 1 of 2 here]
inhibition (Homo sapiens): inactive

COC(=O)N[C@H](C(=O)N1CC(F)(F)C[C@H]1c1ncc(-c2ccc(-c3ccc4c(ccc5nc([C@@H]6C[Si](C)(C)CN6C(=O)[C@@H](NC(=O)OC)C(C)C)[nH]c54)c3)cc2)[nH]1)C(C)C [listing 2 of 2 here]
Papp [1]: 0.8 ×10⁻⁶ cm/s
Activity (Rattus norvegicus [2]): Toxic
fold induction [3]: 0.2
dose excreted [4]: 27%
fraction unbound [5]: < 0.001
Kp [6]: 0.04
clearance (Canis familiaris [7]): 3 to 7%
pKa [8]: 3.57 to 5.69
clearance (Cynomolgus monkey): 3 to 7%
Activity (Rattus norvegicus [9]): Toxic
dose excreted [10]: 27%
Kp [11]: 0.04
Stability [12]: Stable
fraction unbound [13]: < 0.001
Activity (Canis familiaris [14]): Non-Toxic
Kp [15]: 27
Stability (Hepatocyte [16]): Stable
INH (Cytochrome P450 3A4): > 20 µM
selectivity ratio [17]: > 8e+06
Kp [18]: 0.04
dose excreted [19]: 27%
inhibition (INH) [20]: Not Active
inhibition (INH) [21]: Active
Kp [22]: 27
Drug excretion [23]: Active
NOAEL at 96 h [24]: > 30 mg/kg/day
Stability [25]: Stable
Kp [26]: 27
INH (Cytochrome P450 2C9): > 20 µM
Activity [27]: > 3 µM
inhibition (INH) [28]: Not Active
Stability (Hepatocyte [29]): Stable
clearance (Rattus norvegicus [30]): 3 to 7%
INH (Cytochrome P450 2D6): > 20 µM
CC50 [31]: > 25 µM
Stability (Hepatocyte [32]): Stable
Stability [33]: Stable
Activity [34]: > 10 µM
Stability (Hepatocyte [35]): Stable
solubility [36]: 65 µg/mL (≈ 77.1 µM)
fraction unbound [37]: < 0.001
solubility [38]: 2.7 µg/mL (≈ 3.2 µM)
Stability [39]: Stable
Activity (Salmonella typhimurium): Non-Toxic
Activity (Rattus norvegicus [40]): Non-Toxic

— ChEMBL document CHEMBL4118125, “MK-8325: A silyl proline-containing NS5A inhibitor with pan-genotype activity for treatment of HCV” (Bioorg Med Chem Lett, 2018)
